From ChEMBL document CHEMBL1201862, “PubChem BioAssay data set” (2004) come the findings set out here.

Some test systems named below: ACHN; BT-549; EKVX; HOP-62; K562; MDA-MB-435; MDA-N; MOLT-4; NCI/ADR-RES; OVCAR-4; RXF 393; SF-268; SF-539; SK-OV-3; SN12C; SNB-19; T47D; U-251; UACC-257; UO-31.
Assay in all cases: growth of human tumour cells (NCI), 48 h

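How tested: cells in 96-well plates exposed to compound for 48 hours at five concentrations. GI50: concentration for 50% inhibition of growth.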 Activity calls are given as the source filed them. Rule as the data show it: active = GI50 up to about 1.1 µM and inactive = higher.

As for `Cc1c([N+](=O)[O-])oc2ccc3ccccc3c12`, the GI50 was 16.2 µM (inactive) in the assay on ACHN; > 100 µM (inactive) with BT-549; 23 µM (inactive) with EKVX; > 100 µM (inactive) in the assay on HOP-62; 18.9 µM (inactive) with K562; 12.4 µM (inactive) with MDA-MB-435. For the same compound, the GI50 in the assay on MDA-N was 26.9 µM (inactive); in the assay with MOLT-4 it was 2.58 µM (inactive); in the assay with NCI/ADR-RES, 33.4 µM (inactive); with OVCAR-4 it was 47.5 µM (inactive); with RXF 393, 21.4 µM (inactive); with SF-268, 35.7 µM (inactive). For the same compound, the GI50 in the assay with SF-539 is 28.2 µM (inactive); in the assay with SK-OV-3, 20.8 µM (inactive); in the assay with SN12C it was 12.5 µM (inactive); in the assay with SNB-19, > 100 µM (inactive); in the assay with T47D, 61.1 µM (inactive); in the assay on U-251, 65.6 µM (inactive). For the same compound, the values for the GI50 in the assay on UACC-257 and in the assay with UO-31 were 78 µM (inactive) and 34.6 µM (inactive), respectively.
Turning to `NS(=O)(=O)c1nnc(NC(=O)c2cccc([N+](=O)[O-])c2)s1`, the GI50 in the assay with ACHN, in the assay with BT-549, in the assay on EKVX, in the assay with HOP-62, in the assay on K562 and with MDA-MB-435 was > 100 µM (inactive) in each case. Also, the GI50 in the assay on MDA-N, in the assay on MOLT-4, with NCI/ADR-RES, with OVCAR-4, with RXF 393 and in the assay with SF-268 was > 100 µM (inactive) throughout. In addition, the GI50 in the assay on SF-539, in the assay on SK-OV-3, with SN12C, with SNB-19, in the assay with T47D and in the assay on U-251 was > 100 µM (inactive) each time. Also, the GI50 in the assay with UACC-257 and in the assay with UO-31 was > 100 µM (inactive) throughout.
Regarding `Nc1ccc2c(c1)nc1n2C(c2c(F)cccc2F)SC1` (stereo unspecified), the GI50 with ACHN, in the assay with BT-549, with EKVX, in the assay on HOP-62, in the assay with K562 and with MDA-MB-435 was > 100 µM (inactive) throughout. The GI50 is > 100 µM (inactive) with MDA-N; 26.9 µM (inactive) with MOLT-4; > 100 µM (inactive) in the assay on NCI/ADR-RES; > 100 µM (inactive) in the assay with OVCAR-4; > 100 µM (inactive) in the assay on RXF 393; > 100 µM (inactive) with SF-268. Moreover, the GI50 in the assay with SF-539 was > 100 µM (inactive); in the assay on SK-OV-3, > 100 µM (inactive); in the assay with SN12C it was > 100 µM (inactive); in the assay on SNB-19, > 100 µM (inactive); in the assay with T47D, 76.4 µM (inactive); in the assay on U-251, > 100 µM (inactive). Also, the GI50 is > 100 µM (inactive) with UACC-257 and 97.7 µM (inactive) in the assay on UO-31.
For the compound `CC(C)(CO)CNc1nc(N)nc(Cl)c1N`, the GI50 in the assay on ACHN, in the assay on BT-549, in the assay with EKVX, in the assay with HOP-62, in the assay on K562 and in the assay with MDA-MB-435 was > 100 µM (inactive) each time. Moreover, the GI50 in the assay with MDA-N, in the assay on MOLT-4, in the assay on NCI/ADR-RES, in the assay on OVCAR-4, in the assay on RXF 393 and in the assay on SF-268 was > 100 µM (inactive) each time. Also, the GI50 is > 100 µM (inactive) in the assay with SF-539; > 100 µM (inactive) with SK-OV-3; > 100 µM (inactive) in the assay on SN12C; > 100 µM (inactive) with SNB-19; 58.5 µM (inactive) in the assay with T47D; > 100 µM (inactive) in the assay with U-251. For the same compound, the GI50 is 42.9 µM (inactive) with UACC-257 and > 100 µM (inactive) with UO-31.
`CC(C)(C)c1cc(C2NCCO2)cc(C(C)(C)C)c1O` (stereo unspecified): the GI50 is > 100 µM (inactive) in the assay with ACHN; > 100 µM (inactive) with BT-549; 77.3 µM (inactive) with EKVX; 30.1 µM (inactive) with HOP-62; > 100 µM (inactive) in the assay on K562; > 100 µM (inactive) in the assay with MDA-MB-435. Moreover, the GI50 in the assay with MDA-N is > 100 µM (inactive); in the assay on MOLT-4, > 100 µM (inactive); in the assay on NCI/ADR-RES, > 100 µM (inactive); with OVCAR-4, > 100 µM (inactive); with RXF 393 it was 14.7 µM (inactive); in the assay on SF-268, 32.4 µM (inactive). The GI50 in the assay on SF-539 is > 100 µM (inactive); with SK-OV-3, 32.1 µM (inactive); in the assay on SN12C it was 89.7 µM (inactive); with T47D, 0.0538 µM (active); in the assay on U-251 it was 37.1 µM (inactive); in the assay with UACC-257, > 100 µM (inactive).
For `CCc1c(C)c(C#N)c(=S)n(C2OC(COC(C)=O)C(OC(C)=O)C(OC(C)=O)C2OC(C)=O)c1-c1ccccc1` (stereo unspecified), the GI50 with ACHN is 23.7 µM (inactive); with BT-549 it was 52.1 µM (inactive); in the assay with EKVX it was 97.9 µM (inactive); in the assay on HOP-62, 15.8 µM (inactive); in the assay on K562, 21.1 µM (inactive); in the assay on MDA-MB-435 it was > 31.6 µM (inactive). In addition, the GI50 with MDA-N was > 31.6 µM (inactive); in the assay on MOLT-4, > 31.6 µM (inactive); in the assay on NCI/ADR-RES it was > 31.6 µM (inactive); with OVCAR-4 it was > 31.5 µM (inactive); in the assay with RXF 393 it was > 10 µM (inactive); in the assay on SF-268, > 31.6 µM (inactive). In addition, the GI50 with SF-539 is 23.6 µM (inactive); in the assay with SK-OV-3, > 10 µM (inactive); with SN12C, > 31.6 µM (inactive); in the assay on SNB-19 it was > 10 µM (inactive); in the assay with T47D it was > 31.6 µM (inactive); with U-251, 17.3 µM (inactive). Moreover, the figures for the GI50 in the assay on UACC-257 and in the assay on UO-31 were > 31.6 µM (inactive) and > 24.6 µM (inactive), respectively.
As for `Cc1ccc2nc(C(C)C)c(=O)[nH]c2c1`, the GI50 with ACHN is > 100 µM (inactive); in the assay with BT-549, > 100 µM (inactive); with EKVX it was > 100 µM (inactive); with HOP-62, 17.2 µM (inactive); with K562 it was > 100 µM (inactive); in the assay on MDA-MB-435, > 100 µM (inactive). The GI50 was > 100 µM (inactive) in the assay on MDA-N; > 100 µM (inactive) in the assay with MOLT-4; 54.7 µM (inactive) with NCI/ADR-RES; 71.9 µM (inactive) with OVCAR-4; 93.1 µM (inactive) with RXF 393; > 100 µM (inactive) in the assay with SF-268. Further, the GI50 in the assay with SF-539 was 85.1 µM (inactive); in the assay on SK-OV-3, > 100 µM (inactive); with SN12C it was > 100 µM (inactive); with SNB-19 it was > 100 µM (inactive); with T47D it was > 100 µM (inactive); in the assay with U-251, 47 µM (inactive). Moreover, the GI50 in the assay with UACC-257 and with UO-31 was > 100 µM (inactive) throughout.
As to `C/C(=N\NC(=S)N(C)C)c1nc2cccnc2[nH]1`, the GI50 in the assay with ACHN is 0.618 µM (active); in the assay with BT-549, 0.0398 µM (active); in the assay with EKVX it was 0.475 µM (active); with HOP-62, 0.54 µM (active); in the assay on K562, 2.16 µM (inactive); with MDA-MB-435, 0.762 µM (active). In addition, the GI50 was 1.27 µM (inactive) with MDA-N; 0.406 µM (active) in the assay with MOLT-4; 0.449 µM (active) in the assay with NCI/ADR-RES; 0.499 µM (active) in the assay on OVCAR-4; 0.596 µM (active) in the assay on RXF 393; 0.59 µM (active) with SF-268. The GI50 with SF-539 is 0.536 µM (active); in the assay on SK-OV-3, 0.413 µM (active); in the assay on SN12C it was 1.16 µM (inactive); with SNB-19, 1.02 µM (active); in the assay with T47D, 0.475 µM (active); in the assay on U-251 it was 0.494 µM (active). In addition, the values for the GI50 in the assay with UACC-257 and with UO-31 were 2.01 µM (inactive) and 0.348 µM (active), respectively.
Take `CC(C)CCCC(C)[C@H]1CCC2[C@@H]3CCC4Cc5nc6c(nc5C[C@]4(C)C3CC[C@@]21C)CC1CC[C@@H]2C(C[C@@H](O)[C@@]3(C)C2C[C@@H]2OC4(CCC(C)CO4)C(C)[C@@H]23)[C@@]1(C)C6` (stereo partly specified): the GI50 with ACHN, in the assay on BT-549, in the assay on EKVX, in the assay with HOP-62, in the assay on K562 and with MDA-MB-435 was > 100 µM (inactive) throughout. For the same compound, the GI50 with MDA-N, in the assay with MOLT-4, in the assay with NCI/ADR-RES, in the assay with OVCAR-4, in the assay on RXF 393 and with SF-268 was > 100 µM (inactive) each time. The GI50 in the assay with SF-539 was > 100 µM (inactive); with SK-OV-3, 94.4 µM (inactive); with SN12C it was > 100 µM (inactive); in the assay with SNB-19, > 100 µM (inactive); with T47D it was > 100 µM (inactive); in the assay with U-251, > 100 µM (inactive). Moreover, the GI50 in the assay with UACC-257 was > 100 µM (inactive).
As to `N#Cc1c(-c2ccc(Cl)cc2)c2c(n(C3OC(CO)C(O)C(O)C3O)c1=S)CCC2` (stereo unspecified), the GI50 is 33 µM (inactive) in the assay with ACHN; 34.4 µM (inactive) in the assay with BT-549; 23.6 µM (inactive) in the assay with HOP-62; 14.7 µM (inactive) in the assay on K562; 19.8 µM (inactive) with MDA-MB-435; 34.5 µM (inactive) with MDA-N. In addition, the GI50 with MOLT-4 was 10.4 µM (inactive); with NCI/ADR-RES, 61.2 µM (inactive); with OVCAR-4, 34 µM (inactive); in the assay with RXF 393 it was 21.9 µM (inactive); in the assay with SF-268 it was 29 µM (inactive); with SF-539, 19.2 µM (inactive). Further, the GI50 with SK-OV-3 is 39.5 µM (inactive); in the assay with SN12C, 33.9 µM (inactive); in the assay with SNB-19, 22 µM (inactive); in the assay with T47D it was 20.5 µM (inactive); with U-251, 31 µM (inactive); in the assay with UACC-257, 33.4 µM (inactive). In the assay with UO-31, the GI50 is 38.7 µM (inactive).
